Assays:
Assay in all cases: In vitro antibacterial evaluation: minimum inhibitory concentration (MIC), broth dilution method
Format in all cases: cell-based
Conditions in all cases: 18 hours at 35° C.
Enterococcus sp. = tested on: Enterococcus sp.
Procedure, shortened: (§1)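 Test strains, among them recent clinical isolates carrying methicillin, penicillin and/or vancomycin resistance, were inoculated at 5×10^5 CFU/mL. A broth dilution series spanning 64-0.06 μg/mL in Muller-Hinton II […] (NCCLS M7-A2) defined the MIC as the lowest growth-inhibiting concentration.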

Streptococcus sp. = tested on: Streptococcus sp.
Procedure, shortened: as §1

Escherichia coli = tested on: Escherichia coli
Procedure, shortened: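 Inoculum: 5×10^5 CFU/mL. Range: 64-0.06 μg/mL. Medium: Muller-Hinton II […]; NCCLS M7-A2 broth dilution. Endpoint: lowest concentration inhibiting growth. Strains include methicillin-, penicillin- and/or vancomycin-resistant clinical isolates.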

Staphylococcus sp. = tested on: Staphylococcus sp.
Procedure, shortened: as §1

[1] = Enterococcus faecalis (ATCC 29212)
[2] = Enterococcus faecalis (GC 2242)
[3] = Enterococcus faecalis (GC 2691)
[4] = Enterococcus faecalis (GC 3059)
[5] = Enterococcus faecalis (GC 4552)
[6] = Enterococcus faecalis (GC 4553)
[7] = Enterococcus faecalis (GC 4554)
[8] = Enterococcus faecalis (GC 6189)
[9] = broth dilution, strain ATCC 29212
[10] = Streptococcus agalactiae (GC 4564)
[11] = Streptococcus pneumoniae (GC 4565)
[12] = Streptococcus pyogenes (GC 4563)
[13] = Coagulase Negative Staphylococcus (GC 4547)
[14] = Coagulase Negative Staphylococcus (GC 4548)
[15] = Coagulase Negative Staphylococcus (GC 4549)
[16] = Coagulase Negative Staphylococcus (GC 4551)
[17] = Coagulase Negative Staphylococcus (GC 6257)
[18] = Staphylococcus aureus (ATCC 29213)
[19] = Staphylococcus aureus (GC 1131)
[20] = Staphylococcus aureus (GC 3051)
[21] = Staphylococcus aureus (GC 3053)
[22] = Staphylococcus aureus (GC 4541)
[23] = Staphylococcus aureus (GC 4542)
[24] = Staphylococcus aureus (GC 4544)
[25] = Staphylococcus aureus (GC 4545)
[26] = Staphylococcus aureus-SMITH (GC 4543)
[27] = Staphylococcus haemolyticus (GC 4546)
[28] = broth dilution, strain ATCC 29213

α-O-[(N-Methyl-2-methylpropylamino)carbonyl]-cyclo[glycyl-β-methylphenylalanyl-O-(4-O-hexopyranosylhexopyranosyl)tyrosyl-3-(2-iminoimidazolidin-4-yl)seryl-3-(3-hexopyranosyl-2-iminoimidazolidin-4-yl)serylseryl] [Example 255]
64 µg/mL: MIC Coagulase Negative Staphylococcus (GC 4548) (Staphylococcus sp.; [14]) | MIC Coagulase Negative Staphylococcus (GC 4551) (Staphylococcus sp.; [16]) | MIC Coagulase Negative Staphylococcus (GC 4548) (Staphylococcus sp.; broth dilution, strain GC 4548) | MIC Coagulase Negative Staphylococcus (GC 4551) (Staphylococcus sp.; broth dilution, strain GC 4551)
32 µg/mL: MIC Streptococcus agalactiae (GC 4564) (Streptococcus sp.; [10]) | MIC Streptococcus agalactiae (GC 4564) (Streptococcus sp.; broth dilution, strain GC 4564) | MIC Coagulase Negative Staphylococcus (GC 4547) (Staphylococcus sp.; [13]) | MIC Coagulase Negative Staphylococcus (GC 4549) (Staphylococcus sp.; [15]) | MIC Coagulase Negative Staphylococcus (GC 6257) (Staphylococcus sp.; [17]) | MIC Staphylococcus haemolyticus (GC 4546) (Staphylococcus sp.; [27]) | MIC Staphylococcus haemolyticus (GC 4546) (Staphylococcus sp.; broth dilution, strain GC 4546) | MIC Coagulase Negative Staphylococcus (GC 4547) (Staphylococcus sp.; broth dilution, strain GC 4547) | MIC Coagulase Negative Staphylococcus (GC 4549) (Staphylococcus sp.; broth dilution, strain GC 4549) | MIC Coagulase Negative Staphylococcus (GC 6257) (Staphylococcus sp.; broth dilution, strain GC 6257)
0.5 µg/mL: MIC Escherichia coli (GC 4560) (Escherichia coli) | MIC Staphylococcus aureus (GC 3051) (Staphylococcus sp.; [20]) | MIC Staphylococcus aureus (GC 3053) (Staphylococcus sp.; [21]) | MIC Staphylococcus aureus (GC 4541) (Staphylococcus sp.; [22]) | MIC Staphylococcus aureus (GC 4542) (Staphylococcus sp.; [23]) | MIC Staphylococcus aureus (GC 4544) (Staphylococcus sp.; [24]) | MIC Staphylococcus aureus (GC 4545) (Staphylococcus sp.; [25]) | MIC Staphylococcus aureus-SMITH (GC 4543) (Staphylococcus sp.; [26]) | MIC Staphylococcus aureus (GC 3051) (Staphylococcus sp.; broth dilution, strain GC 3051) | MIC Staphylococcus aureus (GC 3053) (Staphylococcus sp.; broth dilution, strain GC 3053) | MIC Staphylococcus aureus (GC 4541) (Staphylococcus sp.; broth dilution, strain GC 4541) | MIC Staphylococcus aureus (GC 4542) (Staphylococcus sp.; broth dilution, strain GC 4542) | MIC Staphylococcus aureus-SMITH (GC 4543) (Staphylococcus sp.; broth dilution, strain GC 4543) | MIC Staphylococcus aureus (GC 4544) (Staphylococcus sp.; broth dilution, strain GC 4544) | MIC Staphylococcus aureus (GC 4545) (Staphylococcus sp.; broth dilution, strain GC 4545)
>0.5 µg/mL: MIC Enterococcus avium (GC 4558) (Enterococcus sp.; Enterococcus avium (GC 4558)) | MIC Enterococcus faecalis (ATCC 29212) (Enterococcus sp.; [1]) | MIC Enterococcus faecalis (GC 2242) (Enterococcus sp.; [2]) | MIC Enterococcus faecalis (GC 2691) (Enterococcus sp.; [3]) | MIC Enterococcus faecalis (GC 3059) (Enterococcus sp.; [4]) | MIC Enterococcus faecalis (GC 4552) (Enterococcus sp.; [5]) | MIC Enterococcus faecalis (GC 4553) (Enterococcus sp.; [6]) | MIC Enterococcus faecalis (GC 4554) (Enterococcus sp.; [7]) | MIC Enterococcus faecalis (GC 6189) (Enterococcus sp.; [8]) | MIC Enterococcus faecalis (ATCC 29212) (Enterococcus sp.; [9]) | MIC Enterococcus faecalis (GC 2242) (Enterococcus sp.; broth dilution, strain GC 2242) | MIC Enterococcus faecalis (GC 2691) (Enterococcus sp.; broth dilution, strain GC 2691) | MIC Enterococcus faecalis (GC 3059) (Enterococcus sp.; broth dilution, strain GC 3059) | MIC Enterococcus faecalis (GC 4552) (Enterococcus sp.; broth dilution, strain GC 4552) | MIC Enterococcus faecalis (GC 4553) (Enterococcus sp.; broth dilution, strain GC 4553) | MIC Enterococcus faecalis (GC 4554) (Enterococcus sp.; broth dilution, strain GC 4554) | MIC Enterococcus avium (GC 4558) (Enterococcus sp.; broth dilution, strain GC 4558) | MIC Enterococcus faecalis (GC 6189) (Enterococcus sp.; broth dilution, strain GC 6189) | MIC Escherichia coli (ATCC 25922) (Escherichia coli) | MIC Escherichia coli (GC 4559) (Escherichia coli) | MIC Staphylococcus aureus (ATCC 29213) (Staphylococcus sp.; [18]) | MIC Staphylococcus aureus (GC 1131) (Staphylococcus sp.; [19]) | MIC Staphylococcus aureus (ATCC 29213) (Staphylococcus sp.; [28]) | MIC Staphylococcus aureus (GC 1131) (Staphylococcus sp.; broth dilution, strain GC 1131)
16 µg/mL: MIC Enterococcus faecium (GC 4557) (Enterococcus sp.; Enterococcus faecium (GC 4557)) | MIC Enterococcus faecium (GC 4557) (Enterococcus sp.; broth dilution, strain GC 4557) | MIC Streptococcus pneumoniae (GC 4565) (Streptococcus sp.; [11]) | MIC Streptococcus pyogenes (GC 4563) (Streptococcus sp.; [12]) | MIC Streptococcus pyogenes (GC 4563) (Streptococcus sp.; broth dilution, strain GC 4563) | MIC Streptococcus pneumoniae (GC 4565) (Streptococcus sp.; broth dilution, strain GC 4565)
>64 µg/mL: MIC Enterococcus faecium (GC 2243) (Enterococcus sp.; Enterococcus faecium (GC 2243)) | MIC Enterococcus faecium (GC 4556) (Enterococcus sp.; Enterococcus faecium (GC 4556)) | MIC Enterococcus faecium (GC 2243) (Enterococcus sp.; broth dilution, strain GC 2243) | MIC Enterococcus faecium (GC 4556) (Enterococcus sp.; broth dilution, strain GC 4556)

β-O-[(Heptylamino)carbonyl]-cyclo[glycyl-β-methylphenylalanyl-O-(4-O-hexopyranosylhexopyranosyl)tyrosyl-3-(2-iminoimidazolidin-4-yl)seryl-3-(3-hexopyranosyl-2-iminoimidazolidin-4-yl)serylseryl] [Example 253a]
16 µg/mL: MIC Enterococcus avium (GC 4558) (Enterococcus sp.; Enterococcus avium (GC 4558)) | MIC Enterococcus faecalis (ATCC 29212) (Enterococcus sp.; [1]) | MIC Enterococcus faecalis (GC 2242) (Enterococcus sp.; [2]) | MIC Enterococcus faecalis (GC 2691) (Enterococcus sp.; [3]) | MIC Enterococcus faecalis (GC 4553) (Enterococcus sp.; [6]) | MIC Enterococcus faecalis (GC 6189) (Enterococcus sp.; [8]) | MIC Enterococcus faecium (GC 2243) (Enterococcus sp.; Enterococcus faecium (GC 2243)) | MIC Enterococcus faecium (GC 4556) (Enterococcus sp.; Enterococcus faecium (GC 4556)) | MIC Enterococcus faecalis (ATCC 29212) (Enterococcus sp.; [9]) | MIC Enterococcus faecalis (GC 2242) (Enterococcus sp.; broth dilution, strain GC 2242) | MIC Enterococcus faecium (GC 2243) (Enterococcus sp.; broth dilution, strain GC 2243) | MIC Enterococcus faecalis (GC 2691) (Enterococcus sp.; broth dilution, strain GC 2691) | MIC Enterococcus faecalis (GC 4553) (Enterococcus sp.; broth dilution, strain GC 4553) | MIC Enterococcus faecium (GC 4556) (Enterococcus sp.; broth dilution, strain GC 4556) | MIC Enterococcus avium (GC 4558) (Enterococcus sp.; broth dilution, strain GC 4558) | MIC Enterococcus faecalis (GC 6189) (Enterococcus sp.; broth dilution, strain GC 6189)
>64 µg/mL: MIC Escherichia coli (ATCC 25922) (Escherichia coli) | MIC Escherichia coli (GC 4559) (Escherichia coli)
4 µg/mL: MIC Enterococcus faecium (GC 4557) (Enterococcus sp.; Enterococcus faecium (GC 4557)) | MIC Enterococcus faecium (GC 4557) (Enterococcus sp.; broth dilution, strain GC 4557) | MIC Coagulase Negative Staphylococcus (GC 4547) (Staphylococcus sp.; [13]) | MIC Coagulase Negative Staphylococcus (GC 4548) (Staphylococcus sp.; [14]) | MIC Staphylococcus aureus (ATCC 29213) (Staphylococcus sp.; [18]) | MIC Staphylococcus aureus (GC 1131) (Staphylococcus sp.; [19]) | MIC Staphylococcus aureus (GC 3053) (Staphylococcus sp.; [21]) | MIC Staphylococcus aureus (GC 4541) (Staphylococcus sp.; [22]) | MIC Staphylococcus aureus (GC 4542) (Staphylococcus sp.; [23]) | MIC Staphylococcus aureus (GC 4544) (Staphylococcus sp.; [24]) | MIC Staphylococcus haemolyticus (GC 4546) (Staphylococcus sp.; [27]) | MIC Staphylococcus aureus (ATCC 29213) (Staphylococcus sp.; [28]) | MIC Staphylococcus aureus (GC 1131) (Staphylococcus sp.; broth dilution, strain GC 1131) | MIC Staphylococcus aureus (GC 3053) (Staphylococcus sp.; broth dilution, strain GC 3053) | MIC Staphylococcus aureus (GC 4541) (Staphylococcus sp.; broth dilution, strain GC 4541) | MIC Staphylococcus aureus (GC 4542) (Staphylococcus sp.; broth dilution, strain GC 4542) | MIC Staphylococcus aureus (GC 4544) (Staphylococcus sp.; broth dilution, strain GC 4544) | MIC Staphylococcus haemolyticus (GC 4546) (Staphylococcus sp.; broth dilution, strain GC 4546) | MIC Coagulase Negative Staphylococcus (GC 4547) (Staphylococcus sp.; broth dilution, strain GC 4547) | MIC Coagulase Negative Staphylococcus (GC 4548) (Staphylococcus sp.; broth dilution, strain GC 4548)
1 µg/mL: MIC Streptococcus agalactiae (GC 4564) (Streptococcus sp.; [10]) | MIC Streptococcus pyogenes (GC 4563) (Streptococcus sp.; [12]) | MIC Streptococcus pyogenes (GC 4563) (Streptococcus sp.; broth dilution, strain GC 4563) | MIC Streptococcus agalactiae (GC 4564) (Streptococcus sp.; broth dilution, strain GC 4564) | MIC Coagulase Negative Staphylococcus (GC 4549) (Staphylococcus sp.; [15]) | MIC Coagulase Negative Staphylococcus (GC 6257) (Staphylococcus sp.; [17]) | MIC Coagulase Negative Staphylococcus (GC 4549) (Staphylococcus sp.; broth dilution, strain GC 4549) | MIC Coagulase Negative Staphylococcus (GC 6257) (Staphylococcus sp.; broth dilution, strain GC 6257)
0.25 µg/mL: MIC Streptococcus pneumoniae (GC 1894) (Streptococcus sp.; Streptococcus pneumoniae (GC 1894)) | MIC Streptococcus pneumoniae (GC 1894) (Streptococcus sp.; broth dilution, strain GC 1894)
32 µg/mL: MIC Enterococcus faecalis (GC 3059) (Enterococcus sp.; [4]) | MIC Enterococcus faecalis (GC 4552) (Enterococcus sp.; [5]) | MIC Enterococcus faecalis (GC 4554) (Enterococcus sp.; [7]) | MIC Enterococcus faecalis (GC 3059) (Enterococcus sp.; broth dilution, strain GC 3059) | MIC Enterococcus faecalis (GC 4552) (Enterococcus sp.; broth dilution, strain GC 4552) | MIC Enterococcus faecalis (GC 4554) (Enterococcus sp.; broth dilution, strain GC 4554)
2 µg/mL: MIC Escherichia coli (GC 4560) (Escherichia coli) | MIC Staphylococcus aureus (GC 3051) (Staphylococcus sp.; [20]) | MIC Staphylococcus aureus (GC 4545) (Staphylococcus sp.; [25]) | MIC Staphylococcus aureus-SMITH (GC 4543) (Staphylococcus sp.; [26]) | MIC Staphylococcus aureus (GC 3051) (Staphylococcus sp.; broth dilution, strain GC 3051) | MIC Staphylococcus aureus-SMITH (GC 4543) (Staphylococcus sp.; broth dilution, strain GC 4543) | MIC Staphylococcus aureus (GC 4545) (Staphylococcus sp.; broth dilution, strain GC 4545)
0.5 µg/mL: MIC Streptococcus pneumoniae (ATCC 6301) (Streptococcus sp.; Streptococcus pneumoniae (ATCC 6301)) | MIC Streptococcus pneumoniae (GC 4565) (Streptococcus sp.; [11]) | MIC Streptococcus pneumoniae (ATCC 6301) (Streptococcus sp.; broth dilution, strain ATCC 6301) | MIC Streptococcus pneumoniae (GC 4565) (Streptococcus sp.; broth dilution, strain GC 4565)
8 µg/mL: MIC Coagulase Negative Staphylococcus (GC 4551) (Staphylococcus sp.; [16]) | MIC Coagulase Negative Staphylococcus (GC 4551) (Staphylococcus sp.; broth dilution, strain GC 4551)

Source: US8247211B2, “Glycopeptide antibiotics” (American Cyanamid Company, priority 2001, dated 2012)
